Laboratory results as given in patent publication US20130096054A1, “LATENT HUMAN IMMUNODEFICIENCY VIRUS REACTIVIATION” (priority 2010, published 2013).
Like-named read-outs stand apart in the source and are kept apart here. Where a SMILES comes first, the peptide text is derived from it. The star is where a group is joined. Cbz = O=C(OCc1ccccc1)*

Key:
[1] = system: NF-κB dependent promoters in 293T cells; assay: NF-κB dependent promoter GFP constructs transfected into 293T cells; assay type: cell-based
Method: (§1) FIGS. 6A-6C show HRF triggers suboptimal functional induction of NF-κB dependent gene expression. […] The HIV-1 reactivating kinetics were determined by stimulating CA5 T cells with optimal concentrations of HRF, phorbol 12-myristate 13-acetate (PMA) and tumor necrosis factor-α (TNF-α) and analyzing HIV-1 reactivation as a function of EGFP-expression over a period of 48 hours. Data for all agents are depicted as the percentage of EGFP-positive cells in the total cell population. […] To test the ability of HRF to mediate Tat-independent activation of the HIV-1 LTR, NOMI cells (HIV-1 reporter cell line with an integrated LTR-EGFP construct) were stimulated with increasing concentrations of PMA (0.01-10 ng/ml), TNF-α (0.003-30 μg/ml) and HRF supernatant (0.3-100 μl). The level of LTR-induction was then measured as EGFP-expression detectable after 24 hours as determined by flow cytometric analysis. Arrows indicate the concentrations at which the respective stimulus would have triggered full HIV-1 reactivation in the latently HIV-1 infected CA5 T cell line. […] 293T cells were transfected with several NF-κB dependent promoter constructs and then stimulated with either TNF-α (10 μg/ml) or HRF (25 μl). Promoter induction was measured as total EGFP expression. […]

[2] = system: HIV-1 LTR (integrated LTR-EGFP construct, NOMI cells); assay: Tat-independent activation of integrated LTR-GFP construct in NOMI reporter T cells; assay type: cell-based; conditions: 24 hours
Method: as §1

[3] = system: latently HIV-1 infected CA5 T cells; conditions: for priming effect on HIV-1 reactivation by sub-optimal dose of HRF: pretreatment with increasing concentrations, then sub-optimal HRF
Method: CA5 T cells were pretreated with increasing concentrations of dactinomycin (DM) (FIG. 11A), the DNA intercalator daunorubicin (DR) (FIG. 11B), or the transcription inhibitors DRB (FIG. 11 C) and α-amanitin (FIG. 11D) (concentrations indicated). The cells were then left unstimulated (white circles) or activated with a sub-optimal concentration of HRF (black circles). Reactivation levels were determined as the percentage of GFP-positive cells 24 hours after stimulation. Viability of the cells correlates with the size of the symbol (size range adjusted to 5-95%).
Infection levels in the cell cultures were monitored by flow cytometric analysis of EGFP expression. Flow cytometric analysis was performed on a GUAVA EasyCyte (Millipore; Billerica, Mass.), or a LSRII (Becton & Dickinson; Franklin Lakes, N.J.).
Bacteria from various sources were isolated on TSA II agar plates containing 5% sheep blood. Bacterial isolates were then grown in RPMI 1640 medium supplemented with 10% FBS. After two days of incubation at 37° C. bacteria were pelleted and resuspended in RPMI medium to an optical density (OD600) of 8, aliquoted and frozen at −80° C. Unless otherwise indicated, Massilia timonae was grown in RPMI 1640 medium supplemented with 10% FBS. Typically, medium was inoculated with Massilia timonae from frozen stocks to an OD600 of 0.01. After 48 hours at 37° C., the culture was centrifuged at 3200 g to separate bacteria from the culture medium. Bacteria were resuspended in fresh medium to an OD600 of 8 and frozen to be used as references and stock cultures. The supernatant was then centrifuged at 10,000 g for 20 minutes and sterilized by passage through an 0.2 μm PVDF filter with low protein binding ability. HRF activity was determined by its ability to reactivate latent HIV-1 infection in CA5 cells. Only supernatants of which 6 μl reactivated infection in at least 60% of CA5 cells were used to study HRF properties.
(§2) Infection levels in the cell cultures were monitored by flow cytometric (FCM) analysis of GFP expression. FCM analysis was performed on a GUAVA EasyCyte (GUAVA Technologies, Inc.; Millipore; Billerica, Mass.) and a BD FACSCalibur or a LSR11 (Becton & Dickinson; Franklin Lakes, N.J.). Cell sorting experiments were performed using a FACSAria™ Flow Cytometer (Becton&Dickinson). Data analysis was performed using either CellQuest (Becton&Dickinson) or GUAVA Express (GUAVA Technologies, Inc.).
To identify the optimal concentration of dactinomycin, CA5 T cells were pretreated with increasing concentrations of dactinomycin (0.0001 and 1 μg/ml), and then left untreated or stimulated with a sub-optimal concentration of HRF or TNF-α. […] Twenty four hours after activator addition, levels of HIV-1 reactivation were determined as the percentage of GFP-positive cells using flow cytometric analysis, which allowed for the simultaneous determination of cell viability.

[4] = system: chronically actively infected T cell lines JNLG#35 and JNLG#44; assay: Active HIV-1 transcription in chronically actively infected GFP-reporter T cells (GFP MCF); assay type: cell-based; conditions: 48 hours after addition
Method: Changes in HIV-1 transcription levels were determined after 48 hours by measuring GFP mean channel fluorescence intensity (GFP MCF). GFP MCF was plotted over the drug concentration for dactinomycin (FIG. 12A), the DNA intercalators daunorubicin (DM) (FIG. 12B) and rebeccamycin (RM) (FIG. 12C), as well as the transcription inhibitors ICRF-193 (FIG. 12D), DRB (FIG. 12E) and α-amanitin (FIG. 12F). The size of symbols indicates the respective cell viability in the sample (size range adjusted to 5-95%).
For this purpose, each of the compounds was titrated over a relevant range of concentrations on two chronically actively infected T cell lines (JNLG#35 and JNLG#44). These clonal cell lines are infected with a GFP-reporter virus. Forty eight hours after addition of the compounds, the effect of each compound on HIV-1 transcription was determined by flow cytometric analysis quantifying GFP mean channel fluorescence intensity (MCF).

[5] = system: latently HIV-1 infected J89GFP T cells; assay: HIV-1 reactivation in latently HIV-1 infected J89GFP T cells (flow cytometry / HTS); assay type: cell-based; conditions: 10 ng/ml PMA, three J89GFP populations
Method: as §2

[6] = system: latently HIV-2 infected J2574 reporter T cells (HIV-2 7312A); assay: Reactivation of latent HIV-2 infection in J2574 reporter T cells; assay type: cell-based; conditions: GFP-negative sorted population
Method: J2574 reporter T cells were infected with HIV-2 7312A and a latently infected cell population was established (>90% latently infected cells). The cell population was then pretreated with varying concentrations of dactinomycin (0-8 ng/ml) for 18 hours and then either left untreated (C) or stimulated with a sub-optimal dose of HRF, which by itself triggered reactivation in 10% of the cells. Reactivation levels were determined 24 hours post HRF activation by quantifying the level of GFP-positive cells using flow cytometric analysis.
J2574 reporter T cells were generated by retrovirally transducing Jurkat T cells with a HIV-1 reporter construct (p2574) in which the HIV-1 LTR controls the expression of GFP. The HIV-1 LTR and the GFP gene are separated by a 2,500 base pair (bp) spacer element. Lentiviral particles were produced by transfecting 293T cells with p2574 and supplying gag-pol-rev-tat in trans. VSV-G was used as viral envelope protein. Following lentiviral transduction of Jurkat cells, all cells that spontaneously expressed GFP were removed by cell sorting. The GFP-negative population was then activated with PMA to identify all cells that would harbor an inducible LTR-GFP-LTR integration event. Cells that turned GFP-positive following stimulation were again selected by cell sorting. GFP expression in this population ceased after a few days leaving a population of GFP-negative reporter cells. The amount of founder cells for this population is calculated to represent >50,000 individual integration events.
To determine the ability of dactinomycin to prime a latent HIV-2 infection, a latently HIV-2 infected population of GFP reporter T cells were tested. Briefly, to create the latent HIV-2 infected population, J2574 reporter cells were infected with HIV-2 7312A and a population of latently HIV-2 infected cells was generated by removing the actively infected, GFP-positive cells using a fluorescence activated cell sorter.

## TNF-α
[1]; TNF-α 10 μg/ml or HRF 25 μl
  GFP expression driven by NF-κB responsive promoter constructs (IL-8, TNF-α, HIV-1 LTR, three consensus NF-κB sites): efficiently induced
[1]; control construct
  GFP expression of construct under murine stem cell virus LTR (no NF-κB responsive element): Neither TNF-α nor HRF influenced GFP expression
[2]
  Tat-independent activation of integrated LTR-GFP construct (GFP expression): stimulated Tat-independent activation of the integrated LTR-GFP construct
[3]; sub-optimal dose of TNF-α alone
  reactivation: 32%

## CO[C@H]1[C@H](O)[C@@H](O)[C@H](n2c3c(Cl)cccc3c3c4c(c5c6cccc(Cl)c6[nH]c5c32)C(=O)NC4=O)O[C@@H]1CO [rebeccamycin]
[4]
  effect on active HIV-1 infection / transcription (GFP MCF): boosted active HIV-1 transcription
[3]
  priming effect on HIV-1 reactivation by sub-optimal dose of HRF: not reproduced

## COc1cccc2c1C(=O)c1c(O)c3c(c(O)c1C2=O)C[C@@](O)(C(C)=O)C[C@@H]3O[C@H]1C[C@H](N)[C@H](O)[C@H](C)O1 [daunorubicin]
[4]
  effect on active HIV-1 infection / transcription (GFP MCF): boosted active HIV-1 transcription

## CC(=O)NCCCCCCNC(C)=O [HMBA, Hexamethylene bisacetamide]
[3]; HMBA alone, compared to TNF-α, PMA or HRF
  reactivation levels: < 40%
[3]; HMBA at 3 mM
  cells with reactivated HIV-1: 15%
[3]; HMBA at 9 mM
  cells with reactivated HIV-1: 35%
  compound toxicity: onset of compound toxicity
[3]; combination of HMBA and TNF-α
  reactivation: 81%
[3]; optimal dose of HMBA alone
  reactivation: 27%
[3]; sub-toxic concentrations
  priming of latent HIV-1 infection for reactivation by sub-optimal TNF-α: relatively potent at priming latent HIV-1 infection for full reactivation
[3]; titration on CA5 T cells
  optimal concentration as HIV-1 priming agent, prior to onset of drug mediated toxicities: 3 to 10 mM

## CCCCCCCCCCCCCC(=O)O[C@@H]1[C@@H](C)[C@@]2(O)[C@@H](C=C(CO)C[C@]3(O)C(=O)C(C)=C[C@@H]23)[C@@H]2C(C)(C)[C@]12OC(C)=O [PMA, 13-phorbol-12-myristate acetate]
[5]
  maximum achievable HIV-1 reactivation levels: 90±3%
[6]
  cells latently infected as revealed by PMA stimulation: > 90%
[2]
  Tat-independent activation of integrated LTR-GFP construct (GFP expression): stimulated Tat-independent activation of the integrated LTR-GFP construct

## CC[C@@]1(O)C(=O)OCc2c1cc1n(c2=O)Cc2cc3ccccc3nc2-1 [camptothecin]
[3]
  priming effect on HIV-1 reactivation by sub-optimal dose of HRF: None of the inhibitors exerted a priming effect

## OC[C@H]1O[C@@H](n2cnc3cc(Cl)c(Cl)cc32)[C@H](O)[C@@H]1O [DRB, 5,6 dichloro-beta-D-ribofuranosylbenzimidazole]
[3]
  cytotoxicity at higher concentrations: high levels of cytotoxicity
  effect of higher concentrations on HIV-1 reactivation triggered by HRF or TNF-α: inhibit HIV-1 reactivation

## CC(C)C[C@@H](C=O)NC(=O)[C@H](CC(C)C)NC(=O)[C@H](CC(C)C)NC(=O)OCc1ccccc1 [MG132] (Cbz-Leu-Leu-Leu-aldehyde)
[3]
  priming effect on HIV-1 reactivation by sub-optimal dose of HRF: did not exhibit any priming effect

## CC[C@H](C)[C@@H]1NC(=O)CNC(=O)[C@@H]2Cc3c([nH]c4cc(O)ccc34)[S+]([O-])C[C@@H](NC(=O)CNC1=O)C(=O)N[C@@H](CC(N)=O)C(=O)N1C[C@H](O)C[C@H]1C(=O)N[C@@H]([C@@H](C)[C@@H](O)CO)C(=O)N2 (stereo in doubt) [α-amanitin]
[3]
  cytotoxicity at higher concentrations: high levels of cytotoxicity
  effect of higher concentrations on HIV-1 reactivation triggered by HRF or TNF-α: inhibit HIV-1 reactivation
  priming effect on HIV-1 reactivation by sub-optimal dose of HRF: None of the inhibitors exerted a priming effect
[3]; listed as α-aminitin
  priming effect on HIV-1 reactivation by sub-optimal dose of HRF: did not exhibit any priming effect

## CC[C@@]1(O)C[C@H](O[C@H]2C[C@H](N(C)C)[C@H](O[C@H]3C[C@H](O)[C@H](O[C@H]4CCC(=O)[C@H](C)O4)[C@H](C)O3)[C@H](C)O2)c2c(cc3c(c2O)C(=O)c2c(O)cccc2C3=O)[C@H]1C(=O)OC [aclacinomycin]
[3]
  priming effect on HIV-1 reactivation by sub-optimal dose of HRF: strong priming effect

## O=C1[O][Pt]2([NH][C@@H]3CCCC[C@H]3[NH]2)[O]C1=O [oxaliplatin]
[3]
  priming effect on HIV-1 reactivation by sub-optimal dose of HRF: not reproduced
